PubChem BioAssay (NCI)
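48-hour exposure; five concentrations; linearly interpolated endpoints. The concentration for full growth arrest is given as TGI.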

Columns and labels:
Experiment in all cases: NCI tumour cell line growth inhibition, 48 h
[1] = tested on: OVCAR-5 ovarian
[2] = tested on: T-47D breast
[3] = tested on: RPMI-8226 leukemia
[4] = tested on: RXF 393 renal
[5] = tested on: EKVX NSCLC
[6] = tested on: A498 renal
[7] = tested on: HS 578T breast
[8] = tested on: SK-MEL-5 melanoma
[9] = tested on: NCI-H522 lung
[10] = tested on: CAKI-1 renal
[11] = tested on: HOP-62 NSCLC
[12] = tested on: UO-31 renal
[13] = tested on: SK-MEL-28 melanoma
[14] = tested on: SK-MEL-2 melanoma
[15] = tested on: HOP-92 NSCLC
[16] = tested on: MDA-MB-231 breast
[17] = tested on: MDA-MB-435
[18] = tested on: 786-0 renal
[19] = tested on: UACC-62 melanoma
[20] = tested on: SF-295 CNS
[21] = tested on: DU-145 prostate
[22] = tested on: CCRF-CEM leukemia
[23] = tested on: MALME-3M melanoma
[24] = tested on: SW-620 colon
[25] = tested on: TK-10 renal
[26] = tested on: SN12C renal
[27] = tested on: SNB-75 CNS
[28] = tested on: UACC-257 melanoma
[29] = tested on: HT29 colon
[30] = tested on: NCI/ADR-RES ovarian
[31] = tested on: NCI-H226 lung
[32] = tested on: MDA-N
[33] = tested on: BT-549 breast
[34] = tested on: SNB-19 CNS
[35] = tested on: SF-268 CNS
[36] = tested on: LOX IMVI melanoma
[37] = tested on: HCT-15 colon
[38] = tested on: NCI-H460 lung
[39] = tested on: SK-OV-3 ovarian
[40] = tested on: MCF7 breast
[41] = tested on: SF-539 CNS
[42] = tested on: HCT-116 colon
[43] = tested on: ACHN renal
[44] = tested on: IGROV1 ovarian
[45] = tested on: M14 melanoma
[46] = tested on: OVCAR-8 ovarian
[47] = tested on: NCI-H23 lung
[48] = tested on: OVCAR-4 ovarian
[49] = tested on: HCC-2998 colon
[50] = tested on: A549 NSCLC
[51] = tested on: PC-3 prostate
[52] = tested on: COLO 205 colon
[53] = tested on: OVCAR-3 ovarian
[54] = tested on: K-562 leukemia
[55] = tested on: HL-60(TB) leukemia
[56] = tested on: KM12 colon
[57] = tested on: U251 CNS

CN1CCN(c2c(O)c3c(c(O)c2Cl)C(=O)C=CC3=O)CC1
TGI [1]: 2.93 µM
TGI [2]: 4.25 µM
TGI [3]: 2.34 µM
TGI [4]: 0.602 µM
TGI [5]: 3.04 µM
TGI [6]: 4.54 µM
TGI [7]: 5.45 µM
TGI [8]: 1.11 µM
TGI [9]: 0.765 µM
TGI [10]: 1.56 µM
TGI [11]: 3.36 µM
TGI [12]: 1.22 µM
TGI [13]: 2.51 µM
TGI [14]: 2.64 µM
TGI [15]: 0.598 µM
TGI [16]: 1.06 µM
TGI [17]: 0.538 µM
TGI [18]: 0.718 µM
TGI [19]: 2.82 µM
TGI [20]: 3.22 µM
TGI [21]: 3.19 µM
TGI [22]: 0.41 µM
TGI [23]: 0.448 µM
TGI [24]: 0.369 µM
TGI [25]: 1.58 µM
TGI [26]: 2.1 µM
TGI [27]: 3.56 µM
TGI [28]: 1.58 µM
TGI [29]: 1.38 µM
TGI [30]: 2.65 µM
TGI [31]: 4.08 µM
TGI [32]: 1.2 µM
TGI [33]: 1.27 µM
TGI [34]: 6.32 µM
TGI [35]: 3.72 µM
TGI [36]: 1.66 µM
TGI [37]: 0.491 µM
TGI [38]: 3.77 µM
TGI [39]: 8.34 µM
TGI [40]: 0.576 µM
TGI [41]: 2.32 µM
TGI [42]: 0.51 µM
TGI [43]: 0.806 µM
TGI [44]: 2.6 µM
TGI [45]: 0.843 µM
TGI [46]: 0.656 µM
TGI [47]: 1.54 µM
TGI [48]: 1.37 µM
TGI [49]: 3.99 µM
TGI [50]: 4.27 µM
TGI [51]: 3.27 µM
TGI [52]: 0.38 µM
TGI [53]: 1.47 µM
TGI [54]: 0.659 µM
TGI [55]: 0.332 µM
TGI [56]: 3.93 µM
TGI [57]: 4.07 µM

O=C(CCC(=O)OCC1OC(O)(CC2OC(CO)C(O)C(O)C2O)C(O)C1O)OCc1ccccc1 (stereo not drawn)
TGI [1]: > 100 µM
TGI [2]: > 100 µM
TGI [4]: > 100 µM
TGI [5]: > 100 µM
TGI [6]: > 100 µM
TGI [7]: > 100 µM
TGI [8]: > 100 µM
TGI [9]: > 100 µM
TGI [10]: > 100 µM
TGI [11]: > 100 µM
TGI [12]: > 100 µM
TGI [13]: > 100 µM
TGI [14]: > 100 µM
TGI [15]: > 100 µM
TGI [16]: > 100 µM
TGI [17]: > 100 µM
TGI [18]: > 100 µM
TGI [19]: > 100 µM
TGI [20]: > 100 µM
TGI [21]: > 100 µM
TGI [22]: > 100 µM
TGI [23]: > 100 µM
TGI [24]: > 100 µM
TGI [25]: > 100 µM
TGI [26]: > 100 µM
TGI [27]: > 100 µM
TGI [28]: > 100 µM
TGI [29]: > 100 µM
TGI [30]: > 100 µM
TGI [31]: > 100 µM
TGI [32]: > 100 µM
TGI [33]: > 100 µM
TGI [34]: > 100 µM
TGI [35]: > 100 µM
TGI [36]: > 100 µM
TGI [37]: > 100 µM
TGI [38]: > 100 µM
TGI [39]: > 100 µM
TGI [40]: > 100 µM
TGI [41]: > 100 µM
TGI [42]: > 100 µM
TGI [43]: > 100 µM
TGI [44]: > 100 µM
TGI [45]: > 100 µM
TGI [46]: > 100 µM
TGI [47]: > 100 µM
TGI [48]: > 100 µM
TGI [49]: > 100 µM
TGI [50]: > 100 µM
TGI [51]: > 100 µM
TGI [52]: > 100 µM
TGI [53]: > 100 µM
TGI [54]: > 100 µM
TGI [55]: > 100 µM
TGI [56]: > 100 µM
TGI [57]: > 100 µM
